One data set concerns E.faecium NR-32065. The experiment in a line: Time-kill kinetic assay. Particulars: twice the RB MIC; fluorescent light.
Data set [1] in a line: Behaviour in water at stomach pH. In kind it is physicochemical. Particulars: water solution having the acidic pH value of the human stomach. The source says: For example, the highly acidic gastric environment (pH 1.5-2 in the fasted state; pH 3-6 in the fed state) rises rapidly to about pH 6 in the duodenum and increases along the small intestine to pH 7.4 at the terminal ileum. The pH value in the cecum drops just below pH 6 and again rises in the colon reaching pH 6.7 at the rectum [Hua, Front Pharmacol 11: Article 524 (April 2020)].

For data set [2], the system named is Gram-positive and -negative bacteria. The experiment in a line: Time-kill kinetics, general statements.
Method: (§4) Time-kill kinetics assay for antimicrobial agents was performed using CLSI guidelines with a minor modification. The multiple time points in time-kill kinetics assays for RB and the reference molecules were performed. The bacterial culture grown in the broth was diluted to a concentration between 1 × 10^8 and 5.0 × 10^9 CFU/mL.
A stock dilution of the antimicrobial test substance was prepared at approximately 2- to about 8-fold the MIC values. The test compounds were inoculated with equal volumes of the specified bacteria placed in a 96-well plate. The microtiter plates were incubated at 37° C. and duration (1-120 min) under the fluorescent light (conditions are summarized in the figure legend). An aliquot of the culture medium was taken from each well and a serial dilution was performed. The diluted culture was incubated at 37° C. and CFU/mL were counted. Bactericidal activity was defined as greater than 3 log-fold decrease in colony forming units [64].
Data set [3] can be described thus: Cytotoxicity with Vero cells under fluorescent light (confluence). The settings on record: African green monkey, selectivity index (SI), cytotoxicity versus antibacterial activity, 1 h treatment time. The protocol: (§1) FIG. 5 is a graph showing the time in hours (h) for cell confluence at four concentrations of HB-RBf (zero µM, 100 µM, 200 µM and 300 µM) when irradiated under fluorescent light;
(§2) Cytotoxicity assays for RB in Vero cells were performed in a 24-well plate.
(§3) Images were collected by AMG EVOS xl transmitted light imaging microscope. […] (5% CO2).

For another data set, the system named is Vero cells. The data set is described as above. The settings on record: fluorescent light; for confluence lost: 200 µM. The protocol:
as §1, §2, §3

Method for E.faecium NR-32065: Thus, the time-course experiments on these bacteria were conducted under the fluorescent light for 2 h (0-1,130 J/cm^2) at concentrations of about 2 to about 8-fold the MIC (RB). Reference molecules used were linezolid (10 µg/mL) and ciprofloxacin (10 µg/mL) for the Gram-positive bacteria and amikacin (10 µg/mL) and meropenem (10 µg/mL) for the Gram-negative bacterium.
as §4
A stock dilution of the antimicrobial test substance was prepared at approximately 2- to about 8-fold the MIC values. The test compounds were inoculated with equal volumes of the specified bacteria placed in a 96-well plate. The microtiter plates were incubated at 37° C. and duration (1-120 min) under the fluorescent light (conditions are summarized in the figure legend). An aliquot of the culture medium was taken from each well and a serial dilution was performed. The diluted culture was incubated at 37° C. and CFU/mL were counted.

As to `O=C([O-])c1c(Cl)c(Cl)c(Cl)c(Cl)c1-c1c2cc(I)c(=O)c(I)c-2oc2c(I)c([O-])c(I)cc12.[Na+].[Na+]` [RB, 4,5,6,7-tetrachloro-2′,4′,5′,7′-tetraiodo-fluorescein], the results for the time to kill (with E.faecium NR-32065; in data set [2] (Gram-negative bacteria); in data set [2] (Gram-positive bacteria)) were at most 2 min, 5 min and 1 to 2 min, respectively. Besides, the “appearance of solution at acidic pH” value in data set [1] was “rapid clouding of the admixture and clumping”. Besides, the log reduction in data set [2] (within 2 hours of contact, preliminary studies) was determined as 6 log. Moreover, the selectivity ratio at 1 h in data set [3] (for Gram-negatives) is above 7.9; in data set [3] (for Gram-positives), above 62.5. Besides, the confluency lost in the data set on Vero cells (100 µM (97.4 µg/mL), 4 h) was around 50%. The “state of the monolayer” value in the data set with Vero cells (100 µM, 1 h exposure) is recorded as “intact”. The confluence lost entry in the data set with Vero cells (1 h) is listed as “About 18%”; with Vero cells (4 h), “over 80%”. For the same compound, the “time to complete loss of the cell viability” value in the data set on Vero cells (300 µM) was at most 2 h. The “concentration tolerated by Vero cells” value in the data set on Vero cells (1 h) is 100 to 200 µM.

For the origin of these results see patent publication US20230233515A1, “PHOTODYNAMIC ANTI-GRAM-POSITIVE BACTERIAL ACTIVITY OF PHARMACEUTICAL-GRADE ROSE BENGAL” (priority 2021, published 2023).
